The record followed here is patent publication US20150051202A1, “TRIAZOLOPYRAZINE DERIVATIVES” (Merck Patent GmbH, priority 2012, published 2015).

One test addresses GCN2 (Homo sapiens, UniProt Q9P2K8). Nature of the test: GCN2 enzyme assay (TR-FRET Lanthascreen, GFP-eIF2alpha substrate). The conditions noted are these: for GCN2 (enzyme assay) % at 10 μM: 100% corresponds to zero effect, −50% corresponds to IC50. Format: biochemical. The text has this: GCN2: Assay Principle & Conditions
This assay can quantificate the activity of the serin kinase GCN2 (general control non-derepressible-2).
This kinase is involved in the stress metabolism of cells. It is activated upon starvation (amino acid depletion). Its natural substrate is eIF2a (eukaryotic initiation factor 2 alpha subunit), a translation factor, which gets activated (phosphorylated) by GCN2 in case of an amino acid bottleneck in the cells. This in turn leads to a halt of the protein synthesis. Inhibition of GCN2 results in stopping this mechanism: The cell can not stop protein production upon “starvation” stress.
The assay is run in two steps: the enzymatic reaction and the detection step. In the first step GCN2 is incubated with 10 μM ATP and 80 nM of the GFP-labelled substrate eIF2alpha at room temperature.
The enzymatic reaction is stopped by addition of EDTA. The amount of phosphorylated eIF2alpha is determined by TR-FRET (Lanthascreen): A complex is formed consisting of antibody and GFP labelled phospho-eIF2a, which allows a FRET upon exitation at 340 nm.
Final Concentrations in the Enzymatic Reaction • Hepes, pH 7.0 50 mM • MgCl2 10 mM • MnCl2 5 mM • BSA 0.1% • DMSO 1% • ATP 10 uM • DTT 2 mM • GFP-eIF2a 80 nM (substrate) • GCN2 30 nM (enzyme)
On the technique in general: In TR-FRET formats the signal depends on donor and acceptor labels being close together.

For the next test, the target named is T1, SYK (Homo sapiens, UniProt P43405).
T1 construct: purchased BPS Bioscience, CA, USA
Nature of the test: SYK enzyme assay (Flash plate assay / Caliper mobility shift assay). Format: biochemical. The conditions noted are these: for SYK (enzyme assay) % at 3 μM: 100% corresponds to zero effect, −50% corresponds to IC50. The method, then: The kinase assay is performed either as 384-well Flashplate assay (for e.g. Topcount measurement) or as 384-well Image-Flashplate assay (for LEADseeker measurement).
2.5 nM SYK, 400 nM Biotin-Aha-Aha-[…]
and 10 μM ATP (spiked with 0.3 μCi 33P-ATP/well) are incubated in a total volume of 50 μl (60 mM Hepes, 10 mM MgCl2, 1.2 mM Dithiothreitol, 0.02% Brij35, 0.1% BSA, pH 7.5) with or without test compound for 1 hours at 30° C. The reaction is stopped with 25 μl 200 mM EDTA. After 30 Min at 30° C. the liquid is removed and each well washed thrice with 100 μl 0.9% sodium chloride solution. Non-specific reaction is determined in presence of 0.1 μM Staurosporine. Radioactivity is measured with Topcount (when using Flashplates) or with LEADseeker (when using Image-Flashplates) respectively. Results (e.g. IC50-values) are calculated with program tools provided by the IT-department (e.g. Symyx Assay Explorer, Genedata Screener).
Enzymatic Assays Using the Caliper LifeSciences Technology
The assays described here are performed on the Caliper Life Sciences LC3000 system This technology provides data on enzyme activity via measurement of the relative amounts of phosphorylated or unphosphorylated fluorescently labelled substrate peptide at the end of an enzymatic reaction.
These different states of peptide are resolved by applying a potential difference across the sample. The presence of the charged phosphate group on the product (as opposed to the substrate) causes a different peptide mobility between the two peptides. This is visualized by excitation of the fluorescent label on the substrate and product peptides and represented as peaks within the analysis software.
In order to measure inhibitor activity of kinase inhibitors on this technology, a TTP Mosquito liquid handling instrument is used to place 0.25 ul of the appropriate concentration of inhibitor in 100% DMSO (for a dose response curve calculation) into each well of a 384-well plate. To this reaction components are added to a final volume of 25 ul. The table below indicates the sequences and concentrations for the assays described in this report. Standard components are 1 mM DTT (Sigma, D0632), 1 mM MgCl2 (Sigma, M1028), 100 mM HEPES pH 7.5 (Calbiochem, 391338), 0.015% Brij-35 (Sigma, B4184).
The reaction is incubated for 90 min at 25 C, and then stopped by the addition of 70 ul of Stop buffer (100 mM HEPES pH 7.5, 0.015% Brij-35, 10 mM EDTA (Sigma, E7889)).
The plate is read on a Caliper LC 3000 in an Off-Chip mobility shift assay format, on a 12-sipper chip. Unphosphorylated substrate and phosphorylated product peptide resolve as separate peaks allowing direct measurement of percentage of conversion of substrate to product. The percent conversion can be plotted against concentration of inhibitor to produce a sigmoidal dose response curve, from which an IC50 can be calculated using GeneData Condoseo or a similar product.

GCN2, sequence (Q9P2K8 whole entry): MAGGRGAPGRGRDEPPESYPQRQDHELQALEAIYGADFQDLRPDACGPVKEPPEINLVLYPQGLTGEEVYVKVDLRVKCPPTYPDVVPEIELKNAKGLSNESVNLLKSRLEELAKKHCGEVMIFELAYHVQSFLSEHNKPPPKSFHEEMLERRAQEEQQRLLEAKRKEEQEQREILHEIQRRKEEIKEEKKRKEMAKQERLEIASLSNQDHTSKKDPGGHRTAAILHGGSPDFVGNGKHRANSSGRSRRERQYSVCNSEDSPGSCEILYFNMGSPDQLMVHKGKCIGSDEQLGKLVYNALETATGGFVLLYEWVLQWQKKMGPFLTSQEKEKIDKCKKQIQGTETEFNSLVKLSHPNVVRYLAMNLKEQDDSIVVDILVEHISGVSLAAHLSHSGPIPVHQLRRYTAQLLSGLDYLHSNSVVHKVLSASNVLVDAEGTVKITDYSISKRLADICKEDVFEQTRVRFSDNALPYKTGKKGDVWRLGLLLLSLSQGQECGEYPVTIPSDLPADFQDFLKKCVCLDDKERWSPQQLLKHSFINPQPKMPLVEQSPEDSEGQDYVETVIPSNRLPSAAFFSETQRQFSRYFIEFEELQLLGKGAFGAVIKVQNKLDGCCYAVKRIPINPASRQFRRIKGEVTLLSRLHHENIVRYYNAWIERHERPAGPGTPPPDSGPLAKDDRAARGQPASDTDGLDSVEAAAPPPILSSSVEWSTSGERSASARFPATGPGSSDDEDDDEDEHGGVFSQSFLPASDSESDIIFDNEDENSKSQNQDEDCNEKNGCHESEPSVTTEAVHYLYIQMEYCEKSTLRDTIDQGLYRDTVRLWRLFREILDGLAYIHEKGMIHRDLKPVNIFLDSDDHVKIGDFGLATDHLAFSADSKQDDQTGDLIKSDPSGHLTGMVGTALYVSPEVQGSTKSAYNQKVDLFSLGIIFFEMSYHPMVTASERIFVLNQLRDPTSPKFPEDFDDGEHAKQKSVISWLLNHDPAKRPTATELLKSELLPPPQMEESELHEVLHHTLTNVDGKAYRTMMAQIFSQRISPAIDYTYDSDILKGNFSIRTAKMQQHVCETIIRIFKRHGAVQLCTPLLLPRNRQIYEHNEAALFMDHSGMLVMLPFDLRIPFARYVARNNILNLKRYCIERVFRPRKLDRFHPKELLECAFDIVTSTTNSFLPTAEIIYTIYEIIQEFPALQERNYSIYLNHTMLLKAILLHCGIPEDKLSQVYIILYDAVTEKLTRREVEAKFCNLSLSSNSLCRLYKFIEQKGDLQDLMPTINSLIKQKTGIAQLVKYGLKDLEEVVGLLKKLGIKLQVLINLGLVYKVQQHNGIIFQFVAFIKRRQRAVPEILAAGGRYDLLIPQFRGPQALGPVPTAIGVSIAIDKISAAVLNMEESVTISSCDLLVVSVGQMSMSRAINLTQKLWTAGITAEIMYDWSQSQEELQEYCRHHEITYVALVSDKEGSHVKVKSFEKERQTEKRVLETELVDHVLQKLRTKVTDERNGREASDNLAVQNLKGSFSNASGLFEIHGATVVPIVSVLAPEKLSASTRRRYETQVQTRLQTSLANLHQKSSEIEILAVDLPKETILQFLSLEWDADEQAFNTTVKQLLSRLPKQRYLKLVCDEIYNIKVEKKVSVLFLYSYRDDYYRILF

As usually defined, the IC50 is the concentration that inhibits the measured activity by half. In the case of `CC(C)(C#N)c1ccc(-c2cncc3nc(Nc4ccc(N5CCOCC5)cc4)nn23)cc1` [Compound A34, 2-Methyl-2-{4-[2-(4-morpholin-4-yl-phenylamino)-[1,2,4]triazolo[1,5-a]pyrazin-5-yl]-phenyl}-propionitrile], the IC50 on GCN2 and on SYK was 1000 to 5000 nM each time.

Consider `Cn1cc(-c2cncc3nc(Nc4ccc(N5CCOCC5)cc4)nn23)cn1` [Compound A35, [5-(1-methyl-1H-pyrazol-4-yl)-[1,2,4]triazolo[1,5-a]pyrazin-2-yl]-(4-morpholin-4-yl-phenyl)-amine], for which the IC50 against GCN2 and at SYK was under 1000 nM each time.

For `c1ccc(-c2ccccc2-c2cncc3nc(Nc4ccc(N5CCOCC5)cc4)nn23)cc1` [Compound A36, (5-biphenyl-2-yl-[1,2,4]triazolo[1,5-a]pyrazin-2-yl)-(4-morpholin-4-yl-phenyl)-amine], the “GCN2 (enzyme assay) % at 10 μM” value on GCN2 is −4@10%. Further, the IC50 at SYK fell in the range of 1000 to 5000 nM.

On to `COc1cc(Nc2nc3cncc(-c4ccccc4-c4ccccc4)n3n2)cc(OC)c1` [Compound A37], for which the “GCN2 (enzyme assay) % at 10 μM” value on GCN2 was 3@10%. In addition, the half-maximal inhibitory concentration (IC50) on SYK was 1000 to 5000 nM.

Regarding `Cc1ncc2nc(Nc3ccc(N4CCOCC4)cc3)nn2c1-c1cnn(C)c1` [Compound A44, [6-methyl-5-(1-methyl-1H-pyrazol-4-yl)-[1,2,4]triazolo[1,5-a]pyrazin-2-yl]-(4-morpholin-4-yl-phenyl)-amine], the IC50 on GCN2 fell in the range of 5000 to 10000 nM; at SYK, 1000 to 5000 nM.

Consider `Cn1cc(-c2c(-c3ccccc3)ncc3nc(Nc4ccc(N5CCOCC5)cc4)nn23)cn1` [Compound A45, [5-(1-methyl-1H-pyrazol-4-yl)-6-phenyl-[1,2,4]triazolo[1,5-a]pyrazin-2-yl]-(4-morpholin-4-yl-phenyl)-amine], for which, on GCN2, the “GCN2 (enzyme assay) % at 10 μM” value is listed as 2@10%. Besides, the IC50 at SYK was under 1000 nM.

`Cn1cc(-c2ncc3nc(Nc4ccc(N5CCOCC5)cc4)nn3c2-c2cnn(C)c2)cn1` [Compound A46, [5,6-Bis-(1-methyl-1H-pyrazol-4-yl)-[1,2,4]triazolo[1,5-a]pyrazin-2-yl]-(4-morpholin-4-yl-phenyl)-amine]: the “GCN2 (enzyme assay) % at 10 μM” value on GCN2 is given as −8@10%. The IC50 on SYK lay within 1000 to 5000 nM.

Consider `Cn1cc(-c2cncc3nc(Nc4ccc(C5(C#N)CC5)cc4)nn23)cn1` [Compound A47, 1-{4-[5-(1-methyl-1H-pyrazol-4-yl)-[1,2,4]triazolo[1,5-a]pyrazin-2-ylamino]-phenyl}-cyclopropanecarbonitrile], for which the half-inhibitory concentration (IC50) against GCN2 and at SYK was under 1000 nM in each case.

With `CN1CCN(c2ccc(Nc3nc4cncc(-c5cnn(CCN6CCOCC6)c5)n4n3)cc2)CC1` [Compound A48, [4-(4-methyl-piperazin-1-yl)-phenyl]-{5-[1-(2-morpholin-4-yl-ethyl)-1H-pyrazol-4-yl]-[1,2,4]triazolo[1,5-a]pyrazin-2-yl}-amine], the IC50 was under 1000 nM on GCN2 and 5000 to 10000 nM on SYK.

As to `O=C1Cc2cc(Nc3nc4cncc(-c5cnn(CCN6CCOCC6)c5)n4n3)ccc2N1` [Compound A49, 5-{5-[1-(2-morpholin-4-yl-ethyl)-1H-pyrazol-4-yl]-[1,2,4]triazolo[1,5-a]pyrazin-2-ylamino}-1,3-dihydro-indol-2-one], on GCN2, the IC50 lay within 1000 to 5000 nM. Besides, the “SYK (enzyme assay) % at 3 μM” value at SYK is recorded as −19@3%.

At GCN2, `Cc1cc(Nc2nc3cncc(-c4cnn(CCN5CCOCC5)c4)n3n2)ccc1N1CCN(C)CC1` [Compound A50, [3-methyl-4-(4-methyl-piperazin-1-yl)-phenyl]-{5-[1-(2-morpholin-4-yl-ethyl)-1H-pyrazol-4-yl]-[1,2,4]triazolo[1,5-a]pyrazin-2-yl}-amine] returned an IC50 of under 1000 nM. The “SYK (enzyme assay) % at 3 μM” value at SYK is given as −32@3%.

With `Cc1cc(Nc2nc3cncc(-c4cnn(CCC(C)C)c4)n3n2)ccc1N1CCN(C)CC1` [Compound A51, {5-[1-(3-methyl-butyl)-1H-pyrazol-4-yl]-[1,2,4]triazolo[1,5-a]pyrazin-2-yl}-[3-methyl-4-(4-methyl-piperazin-1-yl)-phenyl]-amine], the IC50 against GCN2 and at SYK was under 1000 nM throughout.
